{"source": "paper PMC8006131", "about": "“Pulse Dipolar EPR Reveals Double-Histidine Motif Cu^II−NTA Spin-Labeling Robustness against Competitor Ions” (The journal of physical chemistry letters, 2021)", "key": {"I6R1/K28H/Q32H GB1 [1]": {"target": "T1, I6R1/K28H/Q32H GB1 (Streptococcus sp. group G, UniProt P06654, I232C/K254H/Q258H)", "T1 construct": "MTSL nitroxide spin label on Cys6 (R1 side chain); made in house", "test": "Cu^II-nitroxide RIDME pseudotitration (pulse dipolar EPR)", "assay_type": "binding", "details": "for Kd: read-out: fitted dissociation constant (bivariate fit)", "excerpt": "(§1) I Experimental Procedures:\n(§2) 1.1 Construct Design, Expression and Purification:\n(§3) Constructs of Streptococcus sp. group G, protein G B1 domain (GB1) were designed, expressed and purified as previously described.1,2 For completeness the protein sequences for the K28H/Q32H and I6C/K28H/Q32H GB1 constructs are given below in figures S1 and S2, respectively. The positions of the cysteine and double-histidine motif are indicated in cyan and green, respectively.\n(§4) K28H/Q32H GB1 Protein Sequence:\n(§5) Figure S1. Full amino-acid sequence for the K28H/Q32H GB1 construct used in this work, with each histidine residue of the double-histidine motif shown in green; and residue number indicated above the sequence.\n(§6) I6C/K28H/Q32H GB1 Protein Sequence:\nFigure S2. Full amino-acid sequence for the I6C/K28H/Q32H GB1 construct used in this work, with the cysteine residue shown in cyan and each histidine residue of the double-histidine motif shown in green; and residue numbers indicated […]\n1.2 Pulse EPR Sample Preparation:\nAll material was exchanged into pH-adjusted deuterated buffer A (42.4 mM Na2HPO4, 7.6 mM KH2PO4, 150 mM NaCl) by first freeze-drying and then re-dissolving in D2O. For Q-band RIDME samples of 6R1/28H/32H GB1, a total volume of 70 μL was used, with protein concentrations of 1, 2, or 5 μM as stated. All EPR samples were frozen by direct immersion into liquid nitrogen. ZnII-NTA and CuII-NTA stock solutions were prepared as previously described1,3; and for labelling, ZnII-NTA and CuII-NTA stock solutions with nominal concentrations of 100 and 10 mM were used, […]\n1.3 Metal Chelate Spin Label Preparation:\nFor preparation of all metal-NTA labels: CuII-NTA, and ZnII-NTA, , ZnCl2, CuCl2 and NTA were weighed in a glove-box and aliquoted into 1.5 mL reaction tubes. Stock solutions of 100 mM were prepared as previously described.3 Complete dissolution was ensured by vortexing until solutions were clear […]\nof precipitate. […]\n1.5 Pulse EPR Measurements:\nAll pulse EPR experiments were performed using a Bruker ELEXSYS 580 pulse EPR spectrometer.\nTemperatures were maintained using a cryogen-free variable temperature cryostat (Cryogenic Ltd) operating in the 1.8-300 K temperature range. All measurements of the electron spin longitudinal relaxation times (T1) of CuII-NTA, and all 5-pulse dead-time free RIDME measurements4 were performed at 30 K, using a high-power 150 W travelling-wave tube (TWT; Applied Systems […]\nan SRT of 2 ms, with 2560 points, 25 shots-per-point, and 1-5 scans, as stated. A τ of 800 ns was used, with an approximate time-window length of […], incremented in steps of 200 ns.\n1.6 Competitive Binding Model:\nLet us begin by considering a binding equilibrium in presence of a competitor ligand (A), with the following two approximations: i) the binding of the ligand (L) and (A) to a protein (P) is mutually exclusive, and ii) the competitor (A) binds to (P) weakly with respect to (L). Here we can define a dissociation constant for both the ligand (KDL) and for the competitor (KDA), given in (S1) and (S2) […]\nRearranging (S1) and (S2) for equilibrium concentrations of protein and protein-competitor complex, given as [P] and [PA] respectively, yields (S3) and (S4):\nHere, an expression for total protein, [P]0, can be defined:\nSubstitution of (S3) and (S4) into (S5) yields (S6):\nSymbolic substitution and rearrangement of (S6) to solve for [PL] yields (S7): […]"}, "I6R1/K28H/Q32H GB1 [2]": {"target": "T1, I6R1/K28H/Q32H GB1", "details": "pH 7.4; previous work; read-out: fitted dissociation constant; cited from earlier work"}, "6R1/28H/32H GB1": {"target": "6R1/28H/32H GB1", "set-up": "method as in earlier work", "details": "pH 7.4; 75 μM protein, 2 mM CuII-NTA; cited from earlier work"}, "I6R1/K28H/Q32H GB1 [3]": {"target": "T1, I6R1/K28H/Q32H GB1", "test": "Zn^II–NTA competitor RIDME pseudotitration (competition assay in presence of Cu^II–NTA)", "assay_type": "binding", "details": "low μM protein concentration", "description": "The corresponding RIDME pseudotitration was performed at 1 μM protein concentration in the presence of 10 μM Cu^II– NTA (to ensure quantitative loading at the double histidine motif prior to addition of competitor ligand (see SI section 1.6)) and varying Zn^II–NTA concentrations. […] Additionally, this benchmarks quantitation of Cu^II-nitroxide RIDME modulation depths for remotely determining binding affinities of EPR silent ligands, in a competition assay format.\nas §1, §2, §3, §4, §5, §6\nFigure S2. […]"}, "K28H/Q32H GB1": {"target": "T2, K28H/Q32H GB1 (Streptococcus sp. group G, UniProt P06654, K254H/Q258H)", "T2 construct": "made in house", "test": "Isothermal titration calorimetry (ITC) at 298 K, single-site binding model", "description": "seconds between injections, at 298 K. All solutions were degassed before the use and the final samples were centrifuged immediately before measurements. For the ZnII-NTA measurements, K28H/Q32H GB1 concentration was 800 μΜ, and titrant concentration was 12 mM. For the variable pH measurements, K28H/Q32H GB1 concentration was 75 μM and titrant concentration was 2.5 mM. Blank conditions of either buffer A (42.4 mM Na2HPO4, 7.6 mM KH2PO4, 150 mM NaCl, pH 7.4) titrated against addition of 12 mM titrant, or pH adjusted buffer A titrated against addition of 1.0 or 2.0 mM titrant, were recorded for the competitor and variable pH ITC measurements, respectively.\nSubtraction of the blank measurements from the raw data mitigated the heat of dilution. All data analyses were performed in MicroCal Origin 7 (OriginLab, Northampton, MA) and thermodynamic parameters were derived using standard Marquardt fitting of a single-site binding model, as in our previous work.1 The fitted equation is given as:\nWhere: 3($) is the heat content of the solution at the point of the <th injection, is the binding constant, 4 is the stoichiometry of binding, =7 is the molar heat of ligand binding, 8 is the active cell volume, 56 is the total concentration of macromolecule contained in 8 , :6 is the total concentration of ligand contained in 8 .\n1.8 UV-visible Spectroscopy:\nAll UV-visible absorbance spectra were recorded using a Jenway 67 series UV-vis spectrophotometer, in plastic cuvettes with a path length of 10 mm, in single-beam mode. All spectra are recorded at ambient temperature, and with a wavelength resolution of 1 nm, in the wavelength range 320-800 nm. Each sample was blanked before measurement, and all were repeated in triplicate. Data was processed using the Jenway 67-series software suite, and were exported to ASCII format for plotting and analysis in Matlab. For quantitation of CuII-IDA and CuII-NTA concentration, molar extinction coefficients of 62 M-1 cm-1 and 59 M-1cm-1 at 726 nm, and 800 nm were used, respectively, taken from previous literature.1,11"}, "[4]": {"details": "pH 6.4, 298 K, listed as CuII-NTA"}}, "note": "Several values for one entry are separate records, joined by “and”; a condition that tells them apart may be missing. Equal entries are not always repeated. Where two headings read alike, the source gives them in different places."}
{"compound": "O=C([O-])CN(CC(=O)[O-])CC(=O)[O-].[Cu+2]", "note": "[Cu^II–NTA, Cu^II-nitrilotriacetic acid]", "values": [{"measurement": "affinity reduction compared to pH 7.4", "setting": "I6R1/K28H/Q32H GB1 [1]; pH 6.4", "value": 2, "unit": "fold"}, {"measurement": "available double-histidine motifs saturated", "setting": "I6R1/K28H/Q32H GB1 [1]; pH 6.4, 5 μM protein, 1 equiv of Cu^II–NTA", "value": "~70", "unit": "%"}, {"measurement": "Kd", "setting": "I6R1/K28H/Q32H GB1 [1]; pH 6.4, 5 μM protein", "value": "0.31 µM and 0.308 µM"}, {"measurement": "binding affinity higher than at pH 7.4", "setting": "I6R1/K28H/Q32H GB1 [1]; pH 8.4", "value": "approximately 2 fold"}, {"measurement": "Kd", "setting": "I6R1/K28H/Q32H GB1 [1]; pH 8.4, 2 μM protein", "value": 0.091, "unit": "µM"}, {"measurement": "Kd", "setting": "I6R1/K28H/Q32H GB1 [2]", "value": 0.14, "unit": "µM"}, {"measurement": "Kd", "setting": "6R1/28H/32H GB1", "value": 5, "unit": "µM"}, {"measurement": "robust against Zn^II–NTA competitor ligand in molar excess", "setting": "I6R1/K28H/Q32H GB1 [3]", "value": "> 1000", "unit": "fold"}, {"measurement": "binding at the double-histidine motif", "setting": "K28H/Q32H GB1; pH 5.0, 298 K, 75 μM protein, 2 mM Cu^II–NTA", "value": "negligible binding"}, {"measurement": "Wiseman factor", "setting": "K28H/Q32H GB1; pH 6.4", "value": 0.76}, {"measurement": "n (stoichiometry of binding)", "setting": "K28H/Q32H GB1; pH 6.4, 298 K", "value": "~ 1"}, {"measurement": "ΔH", "setting": "K28H/Q32H GB1; pH 6.4, 298 K", "value": -6.9, "unit": "kcal/mol"}, {"measurement": "n (stoichiometry of binding)", "setting": "K28H/Q32H GB1; [4]", "value": 0.97}, {"measurement": "ΔH", "setting": "K28H/Q32H GB1; [4]", "value": -6.94, "unit": "kcal/mol"}, {"measurement": "Kd", "setting": "K28H/Q32H GB1; pH 6.4, 298 K, read-out: KD", "value": 98.6, "unit": "µM"}, {"measurement": "Kd", "setting": "K28H/Q32H GB1; pH 6.4, ΔH extrapolated to 235 K, listed as CuII-NTA, read-out: Predicted KD at 235 K", "value": 4.26, "unit": "µM"}, {"measurement": "Kd", "setting": "K28H/Q32H GB1; pH 6.4, ΔH extrapolated to 235 K, read-out: Predicted KD at 235 K", "value": "~4", "unit": "µM"}, {"measurement": "Wiseman factor", "setting": "K28H/Q32H GB1; pH 8.4", "value": 9.42}, {"measurement": "n (stoichiometry of binding)", "setting": "K28H/Q32H GB1; pH 8.4, 298 K", "value": "~ 2"}, {"measurement": "ΔH", "setting": "K28H/Q32H GB1; pH 8.4, 298 K", "value": -15.2, "unit": "kcal/mol"}, {"measurement": "n (stoichiometry of binding)", "setting": "K28H/Q32H GB1; pH 8.4, 298 K, listed as CuII-NTA", "value": 2.04}, {"measurement": "Kd", "setting": "K28H/Q32H GB1; pH 8.4, 298 K, listed as CuII-NTA, read-out: KD", "value": 7.96, "unit": "µM"}, {"measurement": "Kd", "setting": "K28H/Q32H GB1; pH 8.4, 298 K, read-out: KD", "value": 8, "unit": "µM"}, {"measurement": "predicted increase in affinity compared to previous work", "setting": "K28H/Q32H GB1; pH 8.4, predicted from room-temperature ITC", "value": 20, "unit": "fold"}, {"measurement": "Wiseman factor", "setting": "K28H/Q32H GB1; pH 9.0", "value": 3.00}, {"measurement": "ΔH", "setting": "K28H/Q32H GB1; pH 9.0, 298 K", "value": -2.92, "unit": "kcal/mol"}, {"measurement": "n (stoichiometry of binding)", "setting": "K28H/Q32H GB1; pH 9.0, 298 K, 1 mM CuII-NTA", "value": 0.94}, {"measurement": "Kd", "setting": "K28H/Q32H GB1; pH 9.0, 298 K, read-out: KD", "value": 25, "unit": "µM"}, {"measurement": "Kd", "setting": "K28H/Q32H GB1; pH 9.0, read-out: Predicted KD at 235 K", "value": 6.67, "unit": "µM"}]}
